This is an account of results in ChEMBL document CHEMBL3046465, “A facile synthesis of new 3,3-disubstituted phthalides of pharmacological interest” (Med Chem Res, 2013).

≈ marks a conversion by molar mass, not a printed value.

Assay [1] concerns Nakaseomyces glabratus. Nature of the assay: Antifungal activity against Candida glabrata ATCC 90030 assessed as growth inhibition after 46 to 50 hr by optical density measurement.
Assay [2] concerns Pichia kudriavzevii. Nature of the assay: Antifungal activity against Pichia kudriavzevii ATCC 6258 assessed as growth inhibition after 46 to 50 hr by optical density measurement.
The test system of assay [3] is Aspergillus fumigatus. Nature of the assay: Antifungal activity against Aspergillus fumigatus ATCC 204305 assessed as growth inhibition after 46 to 50 hr by Alamar blue assay. In kind it is functional, organism-based.
The test system of assay [4] is Aspergillus fumigatus. Nature of the assay: Antifungal activity against Aspergillus fumigatus ATCC 204305 assessed as growth inhibition after 46 to 50 hr by CLSI broth dilution method. The format is functional. On the technique in general: Dilution methods test growth across graded concentrations, often in twofold steps.
In assay [5] the test system is Cryptococcus neoformans. Nature of the assay: Antifungal activity against Cryptococcus neoformans ATCC 90113 assessed as growth inhibition after 70 to 74 hr by CLSI broth dilution method. The format is functional.
Assay [6] has as its system Pichia kudriavzevii. Nature of the assay: Antifungal activity against Pichia kudriavzevii ATCC 6258 assessed as growth inhibition after 46 to 50 hr by CLSI broth dilution method. In kind it is functional.
Assay [7] has as its system Candida albicans. Nature of the assay: Antifungal activity against Candida albicans ATCC 90028 assessed as growth inhibition after 46 to 50 hr by CLSI broth dilution method. In kind it is functional.
The subject of assay [8] is Cryptococcus neoformans. Nature of the assay: Antifungal activity against Cryptococcus neoformans ATCC 90113 assessed as growth inhibition after 70 to 74 hr by Alamar blue assay. The format is functional, organism-based. For orientation: Alamar Blue is a resazurin reagent that responds to reducing activity.
The test system of assay [9] is Nakaseomyces glabratus. Nature of the assay: Antifungal activity against Candida glabrata ATCC 90030 assessed as growth inhibition after 46 to 50 hr by CLSI broth dilution method. In kind it is functional.
The subject of assay [10] is Candida albicans. Nature of the assay: Antifungal activity against Candida albicans ATCC 90028 assessed as growth inhibition after 46 to 50 hr by Alamar blue assay. In kind it is functional, organism-based.
Assay [11] deals with Mycobacterium intracellulare. Nature of the assay: Antibacterial activity against Mycobacterium intracellulare ATCC 23068 assessed as growth inhibition after 70 to 74 hr by Alamar blue assay. In kind it is functional, organism-based.
Assay [12] has as its system Staphylococcus aureus. Nature of the assay: Antibacterial activity against methicillin-resistant Staphylococcus aureus ATCC 33591 assessed as growth inhibition after 16 to 20 hr by CLSI broth dilution method. In kind it is functional.
Assay [13] deals with Pseudomonas aeruginosa. Nature of the assay: Antibacterial activity against Pseudomonas aeruginosa ATCC 27853 assessed as growth inhibition after 16 to 20 hr by CLSI broth dilution method. The format is functional.
For assay [14], the system named is Escherichia coli. Nature of the assay: Antibacterial activity against Escherichia coli ATCC 35218 assessed as growth inhibition after 16 to 20 hr by optical density method.
Assay [15] has as its system Mycobacterium intracellulare. Nature of the assay: Antibacterial activity against Mycobacterium intracellulare ATCC 23068 assessed as growth inhibition after 70 to 74 hr by CLSI broth dilution method. The format is functional.
Assay [16] has as its system Staphylococcus aureus. Nature of the assay: Antibacterial activity against methicillin-resistant Staphylococcus aureus ATCC 33591 assessed as growth inhibition after 16 to 20 hr by Alamar blue assay. The format is functional, organism-based.
Assay [17] relates to Escherichia coli. Nature of the assay: Antibacterial activity against Escherichia coli ATCC 35218 assessed as growth inhibition after 16 to 20 hr by CLSI broth dilution method. The format is functional.
Assay [18] relates to Staphylococcus aureus. Nature of the assay: Antibacterial activity against Staphylococcus aureus ATCC 29213 assessed as growth inhibition after 16 to 20 hr by Alamar blue assay. The format is functional, organism-based.
Assay [19] relates to Staphylococcus aureus. Nature of the assay: Antibacterial activity against Staphylococcus aureus ATCC 29213 assessed as growth inhibition after 16 to 20 hr by CLSI broth dilution method. In kind it is functional.
Assay [20] relates to Pseudomonas aeruginosa. Nature of the assay: Antibacterial activity against Pseudomonas aeruginosa ATCC 27853 assessed as growth inhibition after 16 to 20 hr by optical density measurement.
The subject of assay [21] is Escherichia coli. Nature of the assay: Antibacterial activity against Escherichia coli ATCC 35218 assessed as growth inhibition after 16 to 20 hr by optical density measurement.

Regarding `C[C@@H]1[C@H](O)[C@@H](C)/C=C/C=C/C=C/C=C/C=C/C=C/C=C/[C@H](O[C@@H]2O[C@H](C)[C@@H](O)[C@H](N)[C@@H]2O)C[C@@H]2O[C@](O)(C[C@@H](O)C[C@@H](O)[C@H](O)CC[C@@H](O)C[C@@H](O)CC(=O)O[C@H]1C)C[C@H](O)[C@H]2C(=O)O` [AMPHOTERICIN B], the half-maximal inhibitory concentration (IC50) in the assay with Nakaseomyces glabratus [1] is 0.28 µg/mL (≈ 0.303 µM); with Pichia kudriavzevii [2], 0.56 µg/mL (≈ 0.606 µM); in the assay on Aspergillus fumigatus [3], 0.67 µg/mL (≈ 0.725 µM); in the assay with Cryptococcus neoformans [8], 0.32 µg/mL (≈ 0.346 µM); with Candida albicans [10], 0.2 µg/mL (≈ 0.216 µM). In addition, the MIC was 1.25 µg/mL (≈ 1.35 µM) in the assay with Aspergillus fumigatus [4]; 0.63 µg/mL (≈ 0.682 µM) in the assay on Cryptococcus neoformans [5]; 1.25 µg/mL (≈ 1.35 µM) with Pichia kudriavzevii [6]; 0.52 µg/mL (≈ 0.563 µM) with Candida albicans [7]; 0.63 µg/mL (≈ 0.682 µM) with Nakaseomyces glabratus [9].

As for `CC(C)c1ccc(C2(c3ccc(O)c(O)c3O)OC(=O)c3ccccc32)cc1` (configuration not stated), the IC50 in assay [11] is more than 200 µg/mL; in the assay on Nakaseomyces glabratus [1], 17.5 µg/mL (≈ 46.5 µM); with Pichia kudriavzevii [2], 25.5 µg/mL (≈ 67.7 µM); in the assay on Aspergillus fumigatus [3], more than 200 µg/mL; with Escherichia coli [14], 170 µg/mL (≈ 451 µM); with Staphylococcus aureus [16], 18.8 µg/mL (≈ 49.9 µM). For the same compound, the IC50 in the assay with Staphylococcus aureus [18] is 18.4 µg/mL (≈ 49 µM); in the assay with Cryptococcus neoformans [8], more than 200 µg/mL; with Pseudomonas aeruginosa [20], 116 µg/mL (≈ 309 µM); in the assay on Candida albicans [10], 65 µg/mL (≈ 173 µM). The MIC with Staphylococcus aureus [12] was 25 µg/mL (≈ 66.4 µM); in the assay with Pseudomonas aeruginosa [13], more than 200 µg/mL; in the assay with Aspergillus fumigatus [4], more than 200 µg/mL; in the assay on Cryptococcus neoformans [5], more than 200 µg/mL; in [15], more than 200 µg/mL; in the assay on Pichia kudriavzevii [6] it was more than 200 µg/mL. The MIC is more than 200 µg/mL in the assay with Escherichia coli [17], more than 200 µg/mL in the assay with Candida albicans [7], 25 µg/mL (≈ 66.4 µM) in the assay with Staphylococcus aureus [19] and more than 200 µg/mL in the assay on Nakaseomyces glabratus [9].

`CC(C)c1ccc(C2(c3ccc(O)c(O)c3)OC(=O)c3ccccc32)cc1` (configuration not stated): the IC50 in [11] is more than 200 µg/mL; in the assay on Nakaseomyces glabratus [1], 45.8 µg/mL (≈ 127 µM); in the assay on Pichia kudriavzevii [2] it was 15.5 µg/mL (≈ 42.9 µM); with Aspergillus fumigatus [3], 53.2 µg/mL (≈ 148 µM); with Staphylococcus aureus [16], 6.81 µg/mL (≈ 18.9 µM); with Staphylococcus aureus [18] it was 4.96 µg/mL (≈ 13.8 µM). Besides, the IC50 was more than 200 µg/mL in the assay with Escherichia coli [21], 137 µg/mL (≈ 381 µM) in the assay with Cryptococcus neoformans [8], 61 µg/mL (≈ 169 µM) with Pseudomonas aeruginosa [20] and 172 µg/mL (≈ 478 µM) in the assay on Candida albicans [10]. Further, the MIC in the assay with Staphylococcus aureus [12] is 12.5 µg/mL (≈ 34.7 µM); in the assay with Pseudomonas aeruginosa [13], more than 200 µg/mL; in the assay with Aspergillus fumigatus [4] it was more than 200 µg/mL; in the assay on Cryptococcus neoformans [5], more than 200 µg/mL; in assay [15], more than 200 µg/mL; in the assay on Pichia kudriavzevii [6], more than 200 µg/mL. Besides, the minimal inhibitory concentration (MIC) in the assay on Escherichia coli [17] was more than 200 µg/mL; in the assay with Candida albicans [7], more than 200 µg/mL; in the assay on Staphylococcus aureus [19], 18.8 µg/mL (≈ 52 µM); with Nakaseomyces glabratus [9] it was 200 µg/mL (≈ 555 µM).

On to `O=C(O)c1cn(C2CC2)c2cc(N3CCNCC3)c(F)cc2c1=O` [CIPROFLOXACIN], for which the values for the IC50 (in [11]; with Escherichia coli [21]) were 0.32 µg/mL (≈ 0.966 µM) and 0.005 µg/mL (≈ 0.0151 µM), respectively.

Regarding `CC(C)c1ccc(C2(c3ccc(O)c(O)c3O)OC(=O)c3ccccc32)cc1[N+](=O)[O-]` (configuration not stated), the IC50 in [11] is more than 200 µg/mL; in the assay on Nakaseomyces glabratus [1], 21.3 µg/mL (≈ 50.6 µM); with Pichia kudriavzevii [2] it was 88.7 µg/mL (≈ 210 µM); with Aspergillus fumigatus [3], more than 200 µg/mL; in the assay with Staphylococcus aureus [16] it was 45.7 µg/mL (≈ 108 µM); in the assay with Staphylococcus aureus [18], 42.3 µg/mL (≈ 100 µM). Besides, the half-maximal inhibitory concentration (IC50) with Escherichia coli [21] is more than 200 µg/mL; in the assay with Cryptococcus neoformans [8] it was more than 200 µg/mL; in the assay on Pseudomonas aeruginosa [20] it was 163 µg/mL (≈ 386 µM); in the assay on Candida albicans [10], 98.9 µg/mL (≈ 235 µM). The MIC with Staphylococcus aureus [12] is 133 µg/mL (≈ 316 µM); in the assay with Pseudomonas aeruginosa [13] it was more than 200 µg/mL; with Aspergillus fumigatus [4] it was more than 200 µg/mL; in the assay on Cryptococcus neoformans [5], more than 200 µg/mL; in assay [15], more than 200 µg/mL; in the assay with Pichia kudriavzevii [6] it was more than 200 µg/mL. For the same compound, the MIC is more than 200 µg/mL with Escherichia coli [17], more than 200 µg/mL in the assay with Candida albicans [7], 100 µg/mL (≈ 237 µM) with Staphylococcus aureus [19] and 83.3 µg/mL (≈ 198 µM) with Nakaseomyces glabratus [9].

Consider `CC(C)c1ccc(C2(c3ccc(O)c(O)c3)OC(=O)c3ccccc32)cc1[N+](=O)[O-]` (configuration not stated), for which the IC50 in [11] was more than 200 µg/mL; in the assay on Nakaseomyces glabratus [1] it was 76.3 µg/mL (≈ 188 µM); with Pichia kudriavzevii [2], more than 200 µg/mL; in the assay on Aspergillus fumigatus [3], more than 200 µg/mL; in the assay with Staphylococcus aureus [16] it was 27.8 µg/mL (≈ 68.5 µM); with Staphylococcus aureus [18] it was 26.4 µg/mL (≈ 65 µM). The IC50 in the assay with Escherichia coli [21], in the assay on Cryptococcus neoformans [8], in the assay on Pseudomonas aeruginosa [20] and in the assay with Candida albicans [10] was more than 200 µg/mL in each case. Besides, the MIC is 50 µg/mL (≈ 123 µM) with Staphylococcus aureus [12]; more than 200 µg/mL with Pseudomonas aeruginosa [13]; more than 100 µg/mL in the assay with Aspergillus fumigatus [4]; more than 100 µg/mL in the assay on Cryptococcus neoformans [5]; more than 200 µg/mL in [15]; more than 100 µg/mL with Pichia kudriavzevii [6]. In addition, the MIC was more than 200 µg/mL in the assay with Escherichia coli [17], more than 100 µg/mL in the assay on Candida albicans [7], 50 µg/mL (≈ 123 µM) with Staphylococcus aureus [19] and more than 100 µg/mL in the assay with Nakaseomyces glabratus [9].

A word on the IC50: it is the concentration that gives 50% inhibition. By MIC is commonly meant the least concentration at which growth counts as inhibited.
